{
  "source": "patent US11014925B2",
  "about": "“Co-crystals of 1-(4-fluoro-phenyl)-4-((6bR,1OaS)-3-methyl-2,3,6b,9,10,10a-hexahydro-1H,7H- pyrido[3′,4′:4,51_pyrrolo [1,2,3-delqcuinoxalin-8-yl)-butan-1-one with nicotinamide or isonicotinamide” (INTRA-CELLULAR THERAPIES, INC., priority 2016, dated 2021)",
  "key": {"[1]": {"assay": "Dynamic Vapour Sorption (DVS) hygroscopicity", "format": "physicochemical", "experimental": "Dynamic Vapour Sorption (DVS): The Dynamic Vapour Sorption studies are performed using a Surface Measurement Systems Ltd. DVS-1 No Video, equipment #2126. The sample is loaded into a balance pan, typically 20-30 mg, and equilibrated at 0% RH. After the material was dried, the RH is increased with 10% per step for 1 hour per increment, ending at 95% RH. After completion of the sorption cycle, the sample was dried using the same method. The software used for data collection is DVSWin v3.01 No Video. Data analysis is performed using DVS Standard Analysis Suite v6.3.0 (Standard)."}, "[2]": {"conditions": "hydrochloride salt of U.S. Pat. No. 7,183,282; cited from earlier work"}, "[3]": {"conditions": "hydrochloride salt of U.S. Pat. No. 7,183,282; cited from earlier work", "remark": "listed apart in the source"}, "[4]": {"target": "T1, 5-HT2C receptors (Homo sapiens, UniProt P28335)", "T1 sequence (P28335 33-458)": "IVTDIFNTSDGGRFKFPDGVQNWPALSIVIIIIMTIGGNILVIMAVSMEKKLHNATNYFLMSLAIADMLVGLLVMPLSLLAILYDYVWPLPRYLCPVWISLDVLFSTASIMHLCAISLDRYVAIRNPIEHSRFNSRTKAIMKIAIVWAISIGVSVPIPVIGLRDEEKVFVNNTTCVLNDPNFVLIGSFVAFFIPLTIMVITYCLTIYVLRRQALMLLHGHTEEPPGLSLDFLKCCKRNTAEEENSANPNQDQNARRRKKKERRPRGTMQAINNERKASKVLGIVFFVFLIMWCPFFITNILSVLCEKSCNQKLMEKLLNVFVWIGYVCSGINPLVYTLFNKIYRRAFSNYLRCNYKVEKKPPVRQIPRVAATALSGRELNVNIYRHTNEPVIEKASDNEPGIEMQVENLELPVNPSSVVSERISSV", "conditions": "cited from earlier work"}, "[5]": {"assay": "solubility, general statements", "format": "physicochemical", "conditions": "general statement, solvent not given", "experimental": "Solubility of free base in various solvents is evaluated, and based on the results of the solubility range, suitable solvents are selected for the co-crystal screen. Co-crystal formation is based on hydrogen bonding and stacking of the molecules, meaning the co-former selection is based on active groups. Grinding is a method to form co-crystals, however the free base itself is an oil/sticky solid and therefore not suitable for this method. The free base and counter ion are added to a solution in a certain ratio to give the chance to form a co-crystal, similar to salt formation. We found the best method is to add a saturated solution of the co-former to that of the free base to find an optimal ratio for co-crystal formation."}, "[6]": {"conditions": "free base form; in water and in many organic solvents; cited from earlier work"}, "[7]": {"target": "H1 histaminergic receptors (Homo sapiens, UniProt P35367)", "sequence (P35367 whole entry)": "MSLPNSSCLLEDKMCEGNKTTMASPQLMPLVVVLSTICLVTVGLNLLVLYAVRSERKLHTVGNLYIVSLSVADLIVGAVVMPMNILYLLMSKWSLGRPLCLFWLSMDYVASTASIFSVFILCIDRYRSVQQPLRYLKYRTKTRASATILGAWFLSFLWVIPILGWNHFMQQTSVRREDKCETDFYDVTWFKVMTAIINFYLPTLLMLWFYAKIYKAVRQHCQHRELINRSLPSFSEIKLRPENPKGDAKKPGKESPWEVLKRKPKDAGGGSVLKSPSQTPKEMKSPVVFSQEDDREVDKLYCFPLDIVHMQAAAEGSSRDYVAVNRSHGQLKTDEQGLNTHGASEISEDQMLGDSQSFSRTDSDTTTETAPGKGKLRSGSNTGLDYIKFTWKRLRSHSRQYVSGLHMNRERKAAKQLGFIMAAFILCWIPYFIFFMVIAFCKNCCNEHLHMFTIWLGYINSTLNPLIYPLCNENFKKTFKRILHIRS", "conditions": "cited from earlier work"}, "[8]": {"tested_on": "muscarinic receptors", "conditions": "cited from earlier work"}},
  "note": "Like-named read-outs stand apart in the source and are kept apart here.",
  "data": [
    {"smiles": "CN1CCN2c3c(cccc31)C1CN(CCCC(=O)c3ccc(F)cc3)CCC12.NC(=O)c1ccncc1", "note": "(stereo not shown)", "values": [
      {"measurement": "Hygroscopicity (%)", "setting": "[1]", "result": 0.2, "unit": "%"},
      {"measurement": "hygroscopicity (in words)", "setting": "[1]", "result": "not hygroscopic"},
      {"measurement": "mass uptake", "setting": "[1]; at 95 RH %", "result": 0.2, "unit": "%"}
    ]},
    {"smiles": "CN1CCN2c3c(cccc31)C1CN(CCCC(=O)c3ccc(F)cc3)CCC12.Cl", "note": "(stereo not shown) [hydrochloride salt form of ITI-007]", "values": [
      {"measurement": "hygroscopicity", "setting": "[2]", "result": "hygroscopic"},
      {"measurement": "stability", "setting": "[3]", "result": "poor stability"}
    ]},
    {"smiles": "CN1CCN2c3c(cccc31)[C@@H]1CN(CCCC(=O)c3ccc(F)cc3)CC[C@@H]12", "note": "[ITI-007, 1-(4-fluoro-phenyl)-4-((6bR,10aS)-3-methyl-2,3,6b,9,10,10a-hexahydro-1H,7H-pyrido[3′,4′:4,5]pyrrolo[1,2,3-de]quinoxalin-8-yl)-butan-1-one]", "values": [
      {"measurement": "binding", "setting": "[4]", "result": "negligible binding"},
      {"measurement": "solubility", "setting": "[5]", "result": "poorly soluble"},
      {"measurement": "solubility", "setting": "[6]", "result": "poor solubility"},
      {"measurement": "binding", "setting": "[7]", "result": "negligible binding"},
      {"measurement": "binding", "setting": "[8]", "result": "negligible binding"}
    ]}
  ]
}
